Test results: ChEMBL document CHEMBL4507290 (2021)

Assays:
[1] = target: Protein kinase C eta type (Homo sapiens) (UniProt P24723); conditions: Compound concentration 1000.0 nM
[2] = target: TRAF2 and NCK-interacting protein kinase (Homo sapiens) (UniProt Q9UKE5); conditions: Compound concentration 1000.0 nM
[3] = target: Cyclin-dependent kinase-like 3 (Homo sapiens) (UniProt Q8IVW4); conditions: Compound concentration 1000.0 nM
[4] = target: Discoidin domain-containing receptor 2 (Homo sapiens) (UniProt Q16832); conditions: Compound concentration 1000.0 nM
[5] = target: Dual specificity protein kinase CLK1 (Homo sapiens) (UniProt P49759); conditions: Compound concentration 1000.0 nM
[6] = target: Tyrosine-protein kinase Srms (Homo sapiens) (UniProt Q9H3Y6); conditions: Compound concentration 1000.0 nM
[7] = target: Casein kinase I isoform alpha-like (Homo sapiens) (UniProt Q8N752); conditions: Compound concentration 1000.0 nM
[8] = target: Serine/threonine-protein kinase 35 (Homo sapiens) (UniProt Q8TDR2); conditions: Compound concentration 1000.0 nM
[9] = target: Serine/threonine-protein kinase 32B (Homo sapiens) (UniProt Q9NY57); conditions: Compound concentration 1000.0 nM
[10] = target: Leukocyte tyrosine kinase receptor (Homo sapiens) (UniProt P29376); conditions: Compound concentration 1000.0 nM
[11] = system: Proto-oncogene tyrosine-protein kinase receptor Ret (Homo sapiens), P07949 [M918T]; conditions: Compound concentration 1000.0 nM
[12] = target: Mitogen-activated protein kinase kinase kinase 11 (Homo sapiens) (UniProt Q16584); conditions: Compound concentration 1000.0 nM
[13] = target: Sigma intracellular receptor 2 (Homo sapiens) (UniProt Q5BJF2); conditions: Compound concentration 10.0 uM
[14] = target: Serine/threonine-protein kinase mTOR (Homo sapiens) (UniProt P42345); conditions: Compound concentration 1000.0 nM
[15] = system: ALK tyrosine kinase receptor (Homo sapiens), Q9UM73 [C1156Y]; conditions: Compound concentration 1000.0 nM
[16] = target: Tyrosine-protein kinase Tec (Homo sapiens) (UniProt P42680); conditions: Compound concentration 1000.0 nM
[17] = target: Serine/threonine-protein kinase 16 (Homo sapiens) (UniProt O75716); conditions: Compound concentration 1000.0 nM
[18] = target: Phosphatidylinositol 5-phosphate 4-kinase type-2 gamma (Homo sapiens) (UniProt Q8TBX8); conditions: Compound concentration 1000.0 nM
[19] = target: Protein kinase C theta type (Homo sapiens) (UniProt Q04759); conditions: Compound concentration 1000.0 nM
[20] = target: Serine/threonine-protein kinase Sgk1 (Homo sapiens) (UniProt O00141); conditions: Compound concentration 1000.0 nM
[21] = target: Aurora kinase B (Homo sapiens) (UniProt Q96GD4); conditions: Compound concentration 1000.0 nM
[22] = target: Phosphatidylinositol 5-phosphate 4-kinase type-2 beta (Homo sapiens) (UniProt P78356); conditions: Compound concentration 1000.0 nM
[23] = target: MAP/microtubule affinity-regulating kinase 4 (Homo sapiens) (UniProt Q96L34); conditions: Compound concentration 1000.0 nM
[24] = system: Receptor-type tyrosine-protein kinase FLT3 (Homo sapiens), P36888 [UNDEFINED MUTATION]; conditions: Compound concentration 1000.0 nM
[25] = target: G protein-coupled receptor kinase 4 (Homo sapiens) (UniProt P32298); conditions: Compound concentration 1000.0 nM
[26] = target: Serine/threonine-protein kinase MRCK beta (Homo sapiens) (UniProt Q9Y5S2); conditions: Compound concentration 1000.0 nM
[27] = target: D(1B) dopamine receptor (Homo sapiens) (UniProt P21918); conditions: Compound concentration 10.0 uM
[28] = target: Leucine-rich repeat serine/threonine-protein kinase 2 (Homo sapiens) (UniProt Q5S007); conditions: Compound concentration 1000.0 nM
[29] = target: Cyclin-dependent kinase 7 (Homo sapiens) (UniProt P50613); conditions: Compound concentration 1000.0 nM
[30] = target: Mitogen-activated protein kinase kinase kinase 12 (Homo sapiens) (UniProt Q12852); conditions: Compound concentration 1000.0 nM
[31] = target: Myosin light chain kinase 2, skeletal/cardiac muscle (Homo sapiens) (UniProt Q9H1R3); conditions: Compound concentration 1000.0 nM
[32] = target: Beta-3 adrenergic receptor (Homo sapiens) (UniProt P13945); conditions: Compound concentration 10.0 uM
[33] = target: Atypical kinase COQ8A, mitochondrial (Homo sapiens) (UniProt Q8NI60); conditions: Compound concentration 1000.0 nM
[34] = target: Serine/threonine-protein kinase 17B (Homo sapiens) (UniProt O94768); conditions: Compound concentration 1000.0 nM
[35] = target: Mitogen-activated protein kinase 6 (Homo sapiens) (UniProt Q16659); conditions: Compound concentration 1000.0 nM
[36] = target: Dual specificity tyrosine-phosphorylation-regulated kinase 1B (Homo sapiens) (UniProt Q9Y463); conditions: Compound concentration 1000.0 nM
[37] = target: Mitogen-activated protein kinase kinase kinase 10 (Homo sapiens) (UniProt Q02779); conditions: Compound concentration 1000.0 nM
[38] = target: Peripheral plasma membrane protein CASK (Homo sapiens) (UniProt O14936); conditions: Compound concentration 1000.0 nM
[39] = target: Cyclin-dependent kinase 17 (Homo sapiens) (UniProt Q00537); conditions: Compound concentration 1000.0 nM
[40] = target: Serine/threonine-protein kinase Nek6 (Homo sapiens) (UniProt Q9HC98); conditions: Compound concentration 1000.0 nM
[41] = target: Uncharacterized serine/threonine-protein kinase SBK3 (Homo sapiens) (UniProt P0C264); conditions: Compound concentration 1000.0 nM
[42] = target: Dual specificity mitogen-activated protein kinase kinase 5 (Homo sapiens) (UniProt Q13163); conditions: Compound concentration 1000.0 nM
[43] = target: Myotonin-protein kinase (Homo sapiens) (UniProt Q09013); conditions: Compound concentration 1000.0 nM
[44] = target: Dual specificity mitogen-activated protein kinase kinase 6 (Homo sapiens) (UniProt P52564); conditions: Compound concentration 1000.0 nM
[45] = target: Calcium/calmodulin-dependent protein kinase type II subunit delta (Homo sapiens) (UniProt Q13557); conditions: Compound concentration 1000.0 nM

Sequence of Receptor-type tyrosine-protein kinase FLT3 (Homo sapiens), P36888 [UNDEFINED MUTATION] (P36888 whole entry, looked up, change not shown): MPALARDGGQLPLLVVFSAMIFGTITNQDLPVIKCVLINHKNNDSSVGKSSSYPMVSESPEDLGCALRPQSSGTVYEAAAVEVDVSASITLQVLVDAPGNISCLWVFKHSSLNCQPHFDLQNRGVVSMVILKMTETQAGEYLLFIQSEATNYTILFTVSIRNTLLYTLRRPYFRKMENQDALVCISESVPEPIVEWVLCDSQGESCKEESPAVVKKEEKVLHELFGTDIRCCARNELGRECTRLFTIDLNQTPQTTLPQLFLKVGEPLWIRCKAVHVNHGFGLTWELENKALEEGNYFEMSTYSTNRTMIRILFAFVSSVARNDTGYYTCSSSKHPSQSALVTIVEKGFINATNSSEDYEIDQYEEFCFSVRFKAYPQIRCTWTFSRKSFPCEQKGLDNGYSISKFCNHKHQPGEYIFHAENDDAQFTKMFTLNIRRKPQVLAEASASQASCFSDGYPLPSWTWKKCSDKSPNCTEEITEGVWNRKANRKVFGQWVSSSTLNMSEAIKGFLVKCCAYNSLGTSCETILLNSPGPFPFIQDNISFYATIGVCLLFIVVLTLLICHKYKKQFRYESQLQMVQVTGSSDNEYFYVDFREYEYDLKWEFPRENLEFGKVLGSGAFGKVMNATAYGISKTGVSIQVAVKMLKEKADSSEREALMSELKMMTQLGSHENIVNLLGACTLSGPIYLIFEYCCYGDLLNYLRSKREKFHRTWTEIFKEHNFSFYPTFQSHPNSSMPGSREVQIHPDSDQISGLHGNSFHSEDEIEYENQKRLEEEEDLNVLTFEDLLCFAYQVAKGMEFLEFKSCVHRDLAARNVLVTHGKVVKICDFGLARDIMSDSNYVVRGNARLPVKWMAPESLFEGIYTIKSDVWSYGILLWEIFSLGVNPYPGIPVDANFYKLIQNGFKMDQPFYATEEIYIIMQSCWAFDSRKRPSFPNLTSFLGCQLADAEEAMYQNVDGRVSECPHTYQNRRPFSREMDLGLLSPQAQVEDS
Sequence of ALK tyrosine kinase receptor (Homo sapiens), Q9UM73 [C1156Y] (Q9UM73 whole entry C1156Y, looked up): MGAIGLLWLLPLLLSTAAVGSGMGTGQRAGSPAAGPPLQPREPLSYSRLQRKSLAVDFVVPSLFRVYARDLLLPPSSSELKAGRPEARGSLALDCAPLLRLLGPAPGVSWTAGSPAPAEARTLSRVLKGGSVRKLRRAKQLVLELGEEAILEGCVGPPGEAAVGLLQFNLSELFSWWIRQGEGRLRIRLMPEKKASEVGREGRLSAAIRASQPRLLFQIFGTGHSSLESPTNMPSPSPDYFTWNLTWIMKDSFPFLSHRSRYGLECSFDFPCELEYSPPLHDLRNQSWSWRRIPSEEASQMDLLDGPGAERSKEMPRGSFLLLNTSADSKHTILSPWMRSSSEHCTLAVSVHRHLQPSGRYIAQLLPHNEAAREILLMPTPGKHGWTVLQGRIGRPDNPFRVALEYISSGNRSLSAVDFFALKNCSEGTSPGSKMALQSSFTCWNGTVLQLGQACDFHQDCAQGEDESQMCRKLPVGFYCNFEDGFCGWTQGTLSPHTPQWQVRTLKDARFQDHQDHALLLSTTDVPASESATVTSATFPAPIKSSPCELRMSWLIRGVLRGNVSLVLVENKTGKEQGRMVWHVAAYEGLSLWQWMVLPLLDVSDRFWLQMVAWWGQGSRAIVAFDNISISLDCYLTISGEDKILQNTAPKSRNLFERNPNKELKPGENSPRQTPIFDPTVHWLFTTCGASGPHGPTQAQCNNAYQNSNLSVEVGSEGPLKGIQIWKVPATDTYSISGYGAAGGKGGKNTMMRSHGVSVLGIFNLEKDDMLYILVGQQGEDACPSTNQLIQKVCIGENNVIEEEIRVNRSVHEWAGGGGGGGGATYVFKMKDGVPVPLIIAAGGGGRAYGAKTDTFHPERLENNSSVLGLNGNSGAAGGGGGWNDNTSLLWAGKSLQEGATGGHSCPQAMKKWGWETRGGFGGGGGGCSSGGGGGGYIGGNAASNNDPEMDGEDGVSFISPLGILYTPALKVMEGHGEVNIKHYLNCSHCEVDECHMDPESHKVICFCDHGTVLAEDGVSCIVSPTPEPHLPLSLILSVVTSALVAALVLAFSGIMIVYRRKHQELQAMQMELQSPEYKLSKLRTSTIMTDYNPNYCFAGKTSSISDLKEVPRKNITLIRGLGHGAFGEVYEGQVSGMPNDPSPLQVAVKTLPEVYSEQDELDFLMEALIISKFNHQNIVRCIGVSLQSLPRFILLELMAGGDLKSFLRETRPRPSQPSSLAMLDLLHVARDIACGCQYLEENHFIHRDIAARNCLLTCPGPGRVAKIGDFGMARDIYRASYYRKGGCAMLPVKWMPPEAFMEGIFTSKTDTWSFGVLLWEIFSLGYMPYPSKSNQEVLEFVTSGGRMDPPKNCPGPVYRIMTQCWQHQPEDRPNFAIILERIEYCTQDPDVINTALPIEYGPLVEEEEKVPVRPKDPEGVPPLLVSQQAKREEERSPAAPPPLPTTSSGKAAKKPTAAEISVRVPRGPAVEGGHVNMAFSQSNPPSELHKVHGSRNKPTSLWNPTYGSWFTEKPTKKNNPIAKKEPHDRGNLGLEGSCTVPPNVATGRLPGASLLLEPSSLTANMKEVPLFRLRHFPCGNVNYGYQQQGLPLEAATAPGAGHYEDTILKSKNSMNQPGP
Sequence of Serine/threonine-protein kinase 32B (Homo sapiens) (Q9NY57 whole entry): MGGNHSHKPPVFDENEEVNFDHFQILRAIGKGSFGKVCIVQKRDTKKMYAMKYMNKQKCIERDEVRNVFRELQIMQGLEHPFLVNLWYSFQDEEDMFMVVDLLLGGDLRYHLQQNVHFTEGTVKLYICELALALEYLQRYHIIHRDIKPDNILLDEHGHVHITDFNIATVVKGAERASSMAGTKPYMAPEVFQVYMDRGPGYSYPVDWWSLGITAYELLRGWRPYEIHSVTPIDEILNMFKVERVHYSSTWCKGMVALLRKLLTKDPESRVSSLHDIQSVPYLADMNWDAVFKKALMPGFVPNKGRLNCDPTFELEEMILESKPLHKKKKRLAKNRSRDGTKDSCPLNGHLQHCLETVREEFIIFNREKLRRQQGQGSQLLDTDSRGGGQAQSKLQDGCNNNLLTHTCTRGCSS
Sequence of G protein-coupled receptor kinase 4 (Homo sapiens) (P32298 whole entry, looked up): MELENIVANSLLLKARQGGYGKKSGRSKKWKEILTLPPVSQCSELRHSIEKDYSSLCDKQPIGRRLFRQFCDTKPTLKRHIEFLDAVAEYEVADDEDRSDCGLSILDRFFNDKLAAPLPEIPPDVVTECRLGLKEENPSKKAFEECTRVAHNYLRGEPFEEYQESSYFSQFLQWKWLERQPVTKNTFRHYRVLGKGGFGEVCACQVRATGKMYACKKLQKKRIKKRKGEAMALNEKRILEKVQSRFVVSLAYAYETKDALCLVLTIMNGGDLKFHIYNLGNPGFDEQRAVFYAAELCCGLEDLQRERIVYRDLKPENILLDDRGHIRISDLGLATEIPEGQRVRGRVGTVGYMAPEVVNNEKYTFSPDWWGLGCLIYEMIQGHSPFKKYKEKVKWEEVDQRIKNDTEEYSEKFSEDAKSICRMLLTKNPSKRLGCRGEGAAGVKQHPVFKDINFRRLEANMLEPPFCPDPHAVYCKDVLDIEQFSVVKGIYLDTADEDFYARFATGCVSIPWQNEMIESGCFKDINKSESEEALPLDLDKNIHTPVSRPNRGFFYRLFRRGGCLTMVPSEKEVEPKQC
Sequence of Serine/threonine-protein kinase 17B (Homo sapiens) (O94768 whole entry): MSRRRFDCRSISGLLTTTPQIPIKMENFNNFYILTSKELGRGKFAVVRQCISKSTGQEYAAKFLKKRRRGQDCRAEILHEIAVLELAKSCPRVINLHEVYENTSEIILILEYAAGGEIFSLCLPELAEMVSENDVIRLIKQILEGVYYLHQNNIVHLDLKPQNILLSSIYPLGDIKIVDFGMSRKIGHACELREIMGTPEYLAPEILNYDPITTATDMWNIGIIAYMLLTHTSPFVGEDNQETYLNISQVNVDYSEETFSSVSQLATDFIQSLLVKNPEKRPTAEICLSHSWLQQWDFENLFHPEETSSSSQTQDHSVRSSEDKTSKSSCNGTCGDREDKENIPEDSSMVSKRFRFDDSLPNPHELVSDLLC
Sequence of Uncharacterized serine/threonine-protein kinase SBK3 (Homo sapiens) (P0C264 whole entry): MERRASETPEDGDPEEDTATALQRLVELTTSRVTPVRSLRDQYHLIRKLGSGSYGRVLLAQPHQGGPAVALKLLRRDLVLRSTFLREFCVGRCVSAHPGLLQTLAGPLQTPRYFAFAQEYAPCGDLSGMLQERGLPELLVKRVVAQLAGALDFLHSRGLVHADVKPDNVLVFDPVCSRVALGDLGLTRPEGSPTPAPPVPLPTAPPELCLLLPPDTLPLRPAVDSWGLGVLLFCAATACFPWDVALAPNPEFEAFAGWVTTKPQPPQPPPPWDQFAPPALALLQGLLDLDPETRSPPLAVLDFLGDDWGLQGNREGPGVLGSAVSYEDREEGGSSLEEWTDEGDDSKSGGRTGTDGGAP
Sequence of Mitogen-activated protein kinase 6 (Homo sapiens) (Q16659 whole entry): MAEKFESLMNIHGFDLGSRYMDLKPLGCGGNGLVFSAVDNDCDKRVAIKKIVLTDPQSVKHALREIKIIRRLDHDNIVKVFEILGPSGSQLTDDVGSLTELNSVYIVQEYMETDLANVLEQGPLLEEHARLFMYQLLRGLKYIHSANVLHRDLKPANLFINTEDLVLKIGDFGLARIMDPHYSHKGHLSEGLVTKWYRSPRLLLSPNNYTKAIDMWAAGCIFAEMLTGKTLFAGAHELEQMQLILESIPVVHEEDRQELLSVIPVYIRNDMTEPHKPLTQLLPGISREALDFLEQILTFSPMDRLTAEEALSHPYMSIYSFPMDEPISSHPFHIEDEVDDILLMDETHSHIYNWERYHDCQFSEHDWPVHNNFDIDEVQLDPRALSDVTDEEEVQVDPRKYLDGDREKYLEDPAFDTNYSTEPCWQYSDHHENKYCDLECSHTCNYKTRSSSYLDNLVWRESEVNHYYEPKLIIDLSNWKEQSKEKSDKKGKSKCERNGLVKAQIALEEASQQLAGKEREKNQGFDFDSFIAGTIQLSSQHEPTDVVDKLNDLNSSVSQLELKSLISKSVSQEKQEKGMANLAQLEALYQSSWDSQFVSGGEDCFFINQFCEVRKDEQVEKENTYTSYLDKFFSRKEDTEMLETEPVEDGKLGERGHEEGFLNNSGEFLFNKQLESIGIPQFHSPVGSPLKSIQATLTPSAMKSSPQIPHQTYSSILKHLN

SMILES: CN([C@@H]1CCc2c(CC(=O)O)c3cc(S(C)(=O)=O)ccc3n2C1)S(=O)(=O)c1ccc(F)cc1
- residual activity [1]: 100%
- residual activity [2]: 100%
- residual activity [3]: 100%
- residual activity [4]: 88%
- residual activity [5]: 100%
- residual activity [6]: 88%
- residual activity [7]: 94%
- residual activity [8]: 100%
- residual activity [9]: 100%
- residual activity [10]: 100%
- residual activity [11]: 100%
- residual activity [12]: 100%
- inhibition [13]: -9.3%
- residual activity [14]: 79%
- residual activity [15]: 72%
- residual activity [16]: 100%
- residual activity [17]: 95%
- residual activity [18]: 100%
- residual activity [19]: 78%
- residual activity [20]: 100%
- residual activity [21]: 83%
- residual activity [22]: 59%
- residual activity [23]: 100%
- residual activity [24]: 91%
- residual activity [25]: 100%
- residual activity [26]: 100%
- inhibition [27]: -6.04%
- residual activity [28]: 100%
- residual activity [29]: 87%
- residual activity [30]: 100%
- residual activity [31]: 100%
- inhibition [32]: 0.851%
- residual activity [33]: 87%
- residual activity [34]: 85%
- residual activity [35]: 100%
- residual activity [36]: 36%
- residual activity [37]: 100%
- residual activity [38]: 80%
- residual activity [39]: 100%
- residual activity [40]: 84%
- residual activity [41]: 49%
- residual activity [42]: 100%
- residual activity [43]: 100%
- residual activity [44]: 100%
- residual activity [45]: 100%

SMILES: CN([C@@H]1CCc2c(CC(=O)O)c3ccccc3n2C1)S(=O)(=O)c1ccc(F)cc1 [MK-7246]
- residual activity [1]: 100%
- residual activity [2]: 79%
- residual activity [3]: 85%
- residual activity [4]: 98%
- residual activity [5]: 100%
- residual activity [6]: 81%
- residual activity [7]: 100%
- residual activity [8]: 100%
- residual activity [9]: 100%
- residual activity [10]: 100%
- residual activity [11]: 97%
- residual activity [12]: 100%
- inhibition [13]: -9.73%
- residual activity [14]: 100%
- residual activity [15]: 98%
- residual activity [16]: 100%
- residual activity [17]: 99%
- residual activity [18]: 100%
- residual activity [19]: 83%
- residual activity [20]: 100%
- residual activity [21]: 91%
- residual activity [22]: 80%
- residual activity [23]: 100%
- residual activity [24]: 95%
- residual activity [25]: 100%
- residual activity [26]: 100%
- inhibition [27]: 1.94%
- residual activity [28]: 100%
- residual activity [29]: 82%
- residual activity [30]: 100%
- residual activity [31]: 100%
- inhibition [32]: 26.9%
- residual activity [33]: 100%
- residual activity [34]: 85%
- residual activity [35]: 100%
- residual activity [36]: 44%
- residual activity [37]: 100%
- residual activity [38]: 66%
- residual activity [39]: 100%
- residual activity [40]: 99%
- residual activity [41]: 100%
- residual activity [42]: 100%
- residual activity [43]: 100%
- residual activity [44]: 100%
- residual activity [45]: 100%
